Test results from patent US5300524A, “Spirocyclic PAF antagonists” (British Bio-Technology Limited, priority 1991, dated 1994).

Columns and labels:
[1] = molecular target: T1, PAF receptor (^3 H-PAF binding to human platelet plasma membrane) (Homo sapiens, UniProt P25105); test: Inhibition of ^3H-PAF binding to human platelet plasma membrane (isotopic labelling and filtration); settings: human platelet membranes, 0.5 nM ^3H-PAF, 1 hour, 0° C.
T1 construct: from tissue; host or cells: human platelets (concentrates from a hospital blood bank), lysed by freeze-thaw, membrane fraction
T1 sequence (P25105 whole entry): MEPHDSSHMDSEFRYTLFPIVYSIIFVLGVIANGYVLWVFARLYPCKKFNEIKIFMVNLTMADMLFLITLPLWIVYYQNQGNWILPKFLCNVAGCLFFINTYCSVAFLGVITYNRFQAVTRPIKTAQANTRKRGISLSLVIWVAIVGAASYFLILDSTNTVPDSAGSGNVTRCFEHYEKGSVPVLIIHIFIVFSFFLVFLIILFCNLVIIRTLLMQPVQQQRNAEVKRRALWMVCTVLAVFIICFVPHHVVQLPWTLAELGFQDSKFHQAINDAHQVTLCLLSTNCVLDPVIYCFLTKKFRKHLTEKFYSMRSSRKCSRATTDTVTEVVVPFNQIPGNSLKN

[2] = test system: PAF-induced hypotension in rats; test: Reversal of PAF-induced hypotension in the rat; assay type: in vivo; settings: iv, anaesthetised male Sprague-Dawley rats, PAF 100 ng.kg^-1 min^-1 i.v. infusion, compound i.v. bolus, read-out: ED50, dose to cause a 50% reversal of the hypotensive PAF response
Method: Compounds of general formula I inhibit PAF-induced functions in both the cellular and tissue levels by changing the PAF binding to its specific receptor site. The ability of compounds of general formula I to inhibit the binding of PAF to its specific receptor binding site on human platelet plasma membranes was measured according to Pharmacological Example 1. The ability of compounds of general formula I to reverse the hypotension caused by an infusion of PAF in rats was measured according to Pharmacology Example 2. […] Male Sprague-Dawley rats (300-350 gms) were anaesthetised with a mixture of sodium pentobarbitone, 22.5 mg.kg^-1 and thiopental 62.5 mg.kg^-1. Through a midline incision in the neck, the trachea was cannulated and the animals breathed spontaneously. A carotid artery was cannulated for the measurement of blood pressure and this signal was used to trigger a rate meter to measure heart rate. Both jugular veins were cannulated: one for the infusion of PAF and the other for the bolus administration of test compounds.

SMILES | IC50 [1] [µM] | ED50 [2] [mg/kg]
COc1ccc(C2CCC3(O2)C(=O)CCC3c2ccc(OC)c(OC)c2)cc1OC (single isomer, unassigned) [Example 1A, 1-oxa-6-oxo-2,9-(3,4-dimethoxyphenyl)spiro[4,4]nonane] | 12 | 
COc1ccc(C2CCC3(O2)C(=O)C(=CCCc2cccnc2)CC3c2ccc(OC)c(OC)c2)cc1OC (stereo not drawn) [Example 10, 1-Oxa-6-oxo-7-(3-pyridylethyl)methylene-2,9-di(3,4-dimethoxyphenyl)spiro[4,4]nonane] | 1.5 | 
COc1ccc(C2CCC3(O2)C(=O)C(=Cc2cccnc2)CC3c2ccc(OC)cc2)cc1 (stereo not drawn) [Example 19, 1-Oxa-6-oxo-7-(3-pyridyl)methylene-2,9-di(4-methoxyphenyl)spiro[4,4]nonane] | 9 | 

Now from value to compound, other results behind:

IC50 [1] [µM] | SMILES | ED50 [2] [mg/kg]
3 | COc1ccc(C2CCC3(O2)C(=O)C(=Cc2cccnc2)CC3c2ccc(OC)c(OC)c2)cc1OC (stereo not drawn) [Example 2, 1-Oxa-6-oxo-7-(3-pyridyl)methylene-2,9-di(3,4-dimethoxyphenyl)spiro[4,4]nonane] | 0.8
5 | COc1ccc(C2CCC3(O2)C(=O)C(=Cc2cccc(Cl)c2)CC3c2ccc(OC)c(OC)c2)cc1OC (stereo not drawn) [Example 5, 1-Oxa-6-oxo-7-(3-chlorophenyl)methylene-2,9-di(3,4-dimethoxyphenyl)spiro[4,4]nonane] | 
1 | COc1ccc(C2CCC3(O2)C(=O)C(=CCCCCc2cccnc2)CC3c2ccc(OC)c(OC)c2)cc1OC (stereo not drawn) [Example 11, 1-Oxa-6-oxo-7-(3-pyridylbutyl)methylene-2,9-di(3,4-dimethoxyphenyl)spiro[4,4]nonane] | 
1.5 | COc1ccc(C2CCC3(O2)C(=CC#N)CCC3c2ccc(OC)c(OC)c2)cc1OC (stereo not drawn) [Example 17, 1-Oxa-6-cyanomethylene-2,9-di(3,4-dimethoxyphenyl)spiro[4,4]nonane] | 
5 | COc1ccc(C2CCC3(O2)C(=O)CCC3c2ccc(OC)cc2)cc1 (stereo not drawn) [Example 18, 1-Oxa-6-oxo-2,9-di(4-methoxyphenyl)spiro[4,4]nonane] | 
